# Assay results reported in US9796741B2 (Achillion Pharmaceuticals, Inc., priority 2014, dated 2017).
# Target: Human factor D (Homo sapiens (Human), UniProt P00746)
# Assay: Human Factor D Assay
# Assay type: biochemical
# Settings: human factor D 80 nM, substrate Z-L-Lys-SBzl, DTNB
# Method in brief: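 Serum-purified factor D (80 nM final) preincubated 5 min at room temperature with compound in 50 mM Tris, 1M NaCl, pH 7.5. Z-L-Lys-SBzl and DTNB added at 100 μM each; OD405 followed kinetically over 30 min. IC50 by non-linear regression of % inhibition.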
# Human factor D, sequence (P00746 26-253): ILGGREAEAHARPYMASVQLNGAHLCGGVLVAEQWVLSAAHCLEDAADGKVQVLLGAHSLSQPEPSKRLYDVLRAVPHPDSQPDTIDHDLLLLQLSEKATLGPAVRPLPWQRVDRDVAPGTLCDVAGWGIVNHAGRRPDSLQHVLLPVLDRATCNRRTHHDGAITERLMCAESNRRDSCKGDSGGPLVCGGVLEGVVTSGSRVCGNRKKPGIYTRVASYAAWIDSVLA
row,Compound,IC50 [µM]
1,"COc1ncc(-c2ccc3c(c2)c(C(N)=O)nn3CC(=O)N2C[C@H](F)C[C@H]2C(=O)Nc2cccc(Cl)n2)cn1 [Compound 30, 1-(2-((2S,4R)-2-(6-chloropyridin-2-ylcarbamoyl)-4-fluoropyrrolidin-1-yl)-2-oxoethyl)-5-(2-methoxypyrimidin-5-yl)-1H-indazole-3-carboxamide]",< 1
2,"Cc1ccnn1-c1ccccc1NC(=O)[C@@H]1C[C@@H](F)CN1C(=O)Cn1nc(C(N)=O)c2cc(-c3ccnnc3)ccc21 [Compound 71, 1-(2-((2S,4R)-4-fluoro-2-(2-(5-methyl-1H-pyrazol-1-yl)phenylcarbamoyl)pyrrolidin-1-yl)-2-oxoethyl)-5-(pyridazin-4-yl)-1H-indazole-3-carboxamide]",> 10
3,"CC(=O)Nc1ncc(-c2ccc3c(c2)c(C(C)=O)cn3CC(=O)N2C[C@H](F)C[C@H]2C(=O)Nc2cccc(-c3ccccc3Cl)c2F)cn1 [Compound 138, (2S,4R)-1-(2-(5-(2-acetamidopyrimidin-5-yl)-3-acetyl-1H-indol-1-yl)acetyl)-N-(2′-chloro-2-fluorobiphenyl-3-yl)-4-fluoropyrrolidine-2-carboxamide]",< 1
4,"CC(=O)c1cn(CC(=O)N2C[C@H](F)C[C@H]2C(=O)Nc2cccc(O)n2)c2ccc(-c3ccnnc3)cc12 [Compound 144, (2S,4R)-1-(2-(3-acetyl-5-(pyridazin-4-yl)-1H-indol-1-yl)acetyl)-4-fluoro-N-(6-hydroxypyridin-2-yl)pyrrolidine-2-carboxamide]",> 10
5,"NC(=O)c1nn(CC(=O)N2C[C@H](F)C[C@H]2C(=O)NCc2ccncc2)c2ccc(-c3ccnnc3)cc12 [Compound 157, 1-(2-((2S,4R)-4-fluoro-2-(pyridin-4-ylmethylcarbamoyl)pyrrolidin-1-yl)-2-oxoethyl)-5-(pyridazin-4-yl)-1H-indazole-3-carboxamide]",> 10
6,"NC(=O)c1nn(CC(=O)N2C[C@H](F)C[C@H]2C(=O)NCc2cc(F)cc(Cl)c2)c2ccc(-c3ccnnc3)cc12 [Compound 62, 1-(2-((2S,4R)-2-(3-chloro-5-fluorobenzylcarbamoyl)-4-fluoropyrrolidin-1-yl)-2-oxoethyl)-5-(pyridazin-4-yl)-1H-indazole-3-carboxamide]",< 1
7,"NC(=O)c1nn(CC(=O)N2C[C@H](F)C[C@H]2C(=O)Nc2cncc(Cl)n2)c2ccc(-c3ccnnc3)cc12 [Compound 89, 1-(2-((2S,4R)-2-(6-chloropyrazin-2-ylcarbamoyl)-4-fluoropyrrolidin-1-yl)-2-oxoethyl)-5-(pyridazin-4-yl)-1H-indazole-3-carboxamide]",< 1
8,"CC(=O)c1cn(CC(=O)N2C[C@H](F)C[C@H]2C(=O)Nc2ccc(CN)cc2)c2ccc(-c3ccnnc3)cc12 [Compound 85, (2S,4R)-1-(2-(3-acetyl-5-(pyridazin-4-yl)-1H-indol-1-yl)acetyl)-N-(4-(aminomethyl)phenyl)-4-fluoropyrrolidine-2-carboxamide]",> 10
9,"CC(=O)c1cn(CC(=O)N2[C@@H]3C[C@@H]3C[C@H]2C(=O)Nc2cccc(-c3ccccc3Cl)c2F)c2ccc(-c3cnc(C)nc3)cc12 [Compound 133, (1R,3S,5R)-2-(2-(3-acetyl-5-(2-methylpyrimidin-5-yl)-1H-indol-1-yl)acetyl)-N-(2′-chloro-2-fluorobiphenyl-3-yl)-2-azabicyclo[3.1.0] hexane-3-carboxamide]",< 1
10,"CC(=O)c1cn(CC(=O)N2C[C@H](F)C[C@H]2C(=O)NCc2cccc(Cl)c2F)c2ccc(-c3cnc(C)nc3)cc12 [Compound 135, (2S,4R)-1-(2-(3-acetyl-5-(2-methylpyrimidin-5-yl)-1H-indol-1-yl)acetyl)-N-(3-chloro-2-fluorobenzyl)-4-fluoropyrrolidine-2-carboxamide]",< 1
11,"CC(=O)c1nn(CC(=O)N2C[C@H](F)C[C@H]2C(=O)Nc2cccc(-c3ccccc3Cl)c2F)c2ccc(-c3cnc(C)nc3)cc12 [Compound 163, (2S,4R)-1-(2-(3-acetyl-5-(2-methylpyrimidin-5-yl)-1H-indazol-1-yl)acetyl)-N-(2′-chloro-2-fluorobiphenyl-3-yl)-4-fluoropyrrolidine-2-carboxamide]",< 1
